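48-hour exposure; five concentrations; linearly interpolated endpoints. Abbreviation: GI50, concentration required for 50% inhibition of growth. At the TGI there is no net growth.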
Legend:
Experiment in all cases: NCI anticancer screen, dose series, 48 h
[1] = tested on: SF-295 CNS
[2] = tested on: UACC-257 melanoma
[3] = tested on: SR leukemia
[4] = tested on: NCI-H23 lung
[5] = tested on: LOX IMVI melanoma
[6] = tested on: T-47D breast
[7] = tested on: MALME-3M melanoma
[8] = tested on: COLO 205 colon
[9] = tested on: EKVX NSCLC
[10] = tested on: MOLT-4 leukemia
[11] = tested on: SK-MEL-5 melanoma
[12] = tested on: SK-OV-3 ovarian
[13] = tested on: MCF7 breast
[14] = tested on: NCI/ADR-RES ovarian
[15] = tested on: 786-0 renal
[16] = tested on: A498 renal
[17] = tested on: RXF 393 renal
[18] = tested on: DU-145 prostate
[19] = tested on: U251 CNS
[20] = tested on: HOP-92 NSCLC
[21] = tested on: SW-620 colon
[22] = tested on: HOP-62 NSCLC
[23] = tested on: HS 578T breast
[24] = tested on: CAKI-1 renal
[25] = tested on: RPMI-8226 leukemia
[26] = tested on: IGROV1 ovarian
[27] = tested on: UACC-62 melanoma
[28] = tested on: HCT-15 colon
[29] = tested on: HCT-116 colon
[30] = tested on: MDA-MB-435
[31] = tested on: BT-549 breast
[32] = tested on: OVCAR-4 ovarian
[33] = tested on: MDA-MB-231 breast
[34] = tested on: OVCAR-5 ovarian
[35] = tested on: CCRF-CEM leukemia
[36] = tested on: SNB-19 CNS
[37] = tested on: SF-539 CNS
[38] = tested on: NCI-H460 lung
[39] = tested on: K-562 leukemia
[40] = tested on: KM12 colon
[41] = tested on: NCI-H522 lung
[42] = tested on: HT29 colon
[43] = tested on: PC-3 prostate
[44] = tested on: OVCAR-3 ovarian
[45] = tested on: SF-268 CNS
[46] = tested on: SK-MEL-2 melanoma
[47] = tested on: HL-60(TB) leukemia
[48] = tested on: HCC-2998 colon
[49] = tested on: SK-MEL-28 melanoma
[50] = tested on: M14 melanoma
[51] = tested on: SN12C renal
[52] = tested on: ACHN renal
[53] = tested on: OVCAR-8 ovarian
[54] = tested on: A549 NSCLC
[55] = tested on: TK-10 renal
[56] = tested on: UO-31 renal
[57] = tested on: SNB-75 CNS
[58] = tested on: NCI-H226 lung

CCN1CCN(C(=O)[C@]23CCC(C)(C)C[C@@H]2C2=CC[C@@H]4[C@@]5(C)C/C(=C/c6cccnc6)C(=O)C(C)(C)[C@@H]5CC[C@@]4(C)[C@]2(C)CC3)CC1
GI50 [1]: 1660 nM | TGI [1]: 3150 nM | GI50 [2]: 1620 nM | TGI [2]: 4290 nM | GI50 [3]: 706 nM | TGI [3]: 5100 nM | GI50 [4]: 2100 nM | TGI [4]: 5850 nM | GI50 [5]: 1360 nM | TGI [5]: 2730 nM | GI50 [6]: 2610 nM | TGI [6]: 13700 nM | GI50 [7]: 1530 nM | TGI [7]: 2910 nM | GI50 [8]: 1890 nM | TGI [8]: 4740 nM | GI50 [9]: 1900 nM | TGI [9]: 6480 nM | GI50 [10]: 1030 nM | TGI [10]: 5200 nM | GI50 [11]: 1630 nM | TGI [11]: 3000 nM | GI50 [12]: 4190 nM | TGI [12]: 16800 nM | GI50 [13]: 1400 nM | TGI [13]: 3070 nM | GI50 [14]: 1570 nM | TGI [14]: 3460 nM | GI50 [15]: 1600 nM | TGI [15]: 3080 nM | GI50 [16]: 1660 nM | TGI [16]: 3530 nM | GI50 [17]: 1420 nM | TGI [17]: 2770 nM | GI50 [18]: 1830 nM | TGI [18]: 3880 nM | GI50 [19]: 1580 nM | TGI [19]: 3110 nM | GI50 [20]: 1060 nM | TGI [20]: 3260 nM | GI50 [21]: 1780 nM | TGI [21]: 3880 nM | GI50 [22]: 1880 nM | TGI [22]: 3750 nM | GI50 [23]: 1830 nM | TGI [23]: 5370 nM | GI50 [24]: 2080 nM | TGI [24]: 11800 nM | GI50 [25]: 959 nM | TGI [25]: 5130 nM | GI50 [26]: 1910 nM | TGI [26]: 4160 nM | GI50 [27]: 1280 nM | TGI [27]: 2830 nM | GI50 [28]: 1080 nM | TGI [28]: 2710 nM | GI50 [29]: 1010 nM | TGI [29]: 2220 nM | GI50 [30]: 1480 nM | TGI [30]: 3110 nM | GI50 [31]: 1470 nM | TGI [31]: 2880 nM | GI50 [32]: 2170 nM | TGI [32]: 7850 nM | GI50 [33]: 1400 nM | TGI [33]: 2840 nM | GI50 [34]: 1560 nM | TGI [34]: 3350 nM | GI50 [35]: 2100 nM | TGI [35]: 9020 nM | GI50 [36]: 1680 nM | TGI [36]: 3460 nM | GI50 [37]: 1620 nM | TGI [37]: 3000 nM | GI50 [38]: 1390 nM | TGI [38]: 2930 nM | GI50 [39]: 1430 nM | TGI [39]: > 100000 nM | GI50 [40]: 1580 nM | TGI [40]: 3260 nM | GI50 [41]: 1610 nM | TGI [41]: 3750 nM | GI50 [42]: 1710 nM | TGI [42]: 4670 nM | GI50 [43]: 1000 nM | TGI [43]: 2790 nM | GI50 [44]: 1510 nM | TGI [44]: 2950 nM | GI50 [45]: 1590 nM | TGI [45]: 4790 nM | GI50 [46]: 1930 nM | TGI [46]: 3960 nM | GI50 [47]: 443 nM | TGI [47]: 3340 nM | GI50 [48]: 1580 nM | TGI [48]: 3120 nM | GI50 [49]: 1480 nM | TGI [49]: 2830 nM | GI50 [50]: 1600 nM | TGI [50]: 3150 nM | GI50 [51]: 1220 nM | TGI [51]: 2540 nM | GI50 [52]: 2600 nM | TGI [52]: 10500 nM | GI50 [53]: 2140 nM | TGI [53]: 5540 nM | GI50 [54]: 2620 nM | TGI [54]: 13400 nM | GI50 [55]: 3860 nM | TGI [55]: 15400 nM | GI50 [56]: 1350 nM | TGI [56]: 2670 nM

O=C(CCl)Nc1ccc2c(c1)C(=O)c1ccc(NC(=O)CCl)cc1C2=O
GI50 [1]: 1440 nM | TGI [1]: 3290 nM | GI50 [2]: 1800 nM | TGI [2]: 4870 nM | GI50 [3]: 95.9 nM | TGI [3]: 1980 nM | GI50 [4]: 253 nM | TGI [4]: 834 nM | GI50 [5]: 93.5 nM | TGI [5]: 229 nM | GI50 [6]: 1220 nM | TGI [6]: 3950 nM | GI50 [7]: 219 nM | TGI [7]: 888 nM | GI50 [10]: 241 nM | TGI [10]: 2130 nM | GI50 [11]: 214 nM | TGI [11]: 502 nM | GI50 [12]: 1630 nM | TGI [12]: 7010 nM | GI50 [13]: 194 nM | TGI [13]: 790 nM | GI50 [14]: 352 nM | TGI [14]: 1780 nM | GI50 [15]: 193 nM | TGI [15]: 537 nM | GI50 [16]: 3490 nM | TGI [16]: 27600 nM | GI50 [17]: 288 nM | TGI [17]: 928 nM | GI50 [18]: 1410 nM | TGI [18]: 3450 nM | GI50 [20]: 1130 nM | TGI [20]: 2610 nM | GI50 [21]: 198 nM | TGI [21]: 493 nM | GI50 [23]: 1290 nM | TGI [23]: 9570 nM | GI50 [24]: 683 nM | TGI [24]: 1980 nM | GI50 [25]: 434 nM | TGI [25]: 2230 nM | GI50 [26]: 260 nM | TGI [26]: 1150 nM | GI50 [27]: 299 nM | TGI [27]: 990 nM | GI50 [28]: 183 nM | TGI [28]: 469 nM | GI50 [29]: 199 nM | TGI [29]: 768 nM | GI50 [30]: 395 nM | TGI [30]: 1810 nM | GI50 [31]: 220 nM | TGI [31]: 857 nM | GI50 [33]: 486 nM | TGI [33]: 2360 nM | GI50 [34]: 371 nM | TGI [34]: 1630 nM | GI50 [35]: 127 nM | TGI [35]: 896 nM | GI50 [36]: 547 nM | TGI [36]: 2980 nM | GI50 [37]: 301 nM | TGI [37]: 866 nM | GI50 [38]: 387 nM | TGI [38]: 1530 nM | GI50 [57]: 1010 nM | TGI [57]: 2220 nM | GI50 [39]: 319 nM | TGI [39]: > 100000 nM | GI50 [40]: 1060 nM | TGI [40]: 2420 nM | GI50 [41]: 194 nM | TGI [41]: 570 nM | GI50 [42]: 314 nM | TGI [42]: 4210 nM | GI50 [43]: 876 nM | TGI [43]: 2500 nM | GI50 [44]: 277 nM | TGI [44]: 885 nM | GI50 [45]: 386 nM | TGI [45]: 1920 nM | GI50 [46]: 783 nM | TGI [46]: 3840 nM | GI50 [47]: 454 nM | TGI [47]: 3080 nM | GI50 [48]: 1770 nM | TGI [48]: 3790 nM | GI50 [49]: 321 nM | TGI [49]: 1330 nM | GI50 [50]: 236 nM | TGI [50]: 781 nM | GI50 [51]: 350 nM | TGI [51]: 1760 nM | GI50 [53]: 439 nM | TGI [53]: > 100000 nM | GI50 [54]: 2790 nM | TGI [54]: > 100000 nM | GI50 [55]: 1810 nM | TGI [55]: 7330 nM | GI50 [56]: 449 nM | TGI [56]: 1880 nM | GI50 [58]: 229 nM | TGI [58]: 711 nM

From PubChem BioAssay (NCI)
